We go through 4 compounds from patent publication US5648333A, “Peptides having bradykinin antagonist action” (Hoechst Aktiengesellschaft, priority 1988, dated 1997).

The structures appear in SMILES notation. Where a SMILES comes first, the peptide text is derived from it. [ ]: non-standard residue; d: D form. Oic = O=C(O)[C@@H]1C[C@@H]2CCCC[C@@H]2N1; Hyp = O=C(O)[C@@H]1C[C@@H](O)CN1; dTic = O=C(O)[C@H]1Cc2ccccc2CN1

The target in the test is T1, isolated pulmonary artery of the guinea pig (Cavia porcellus, UniProt O70526).
T1 sequence (O70526 1-372): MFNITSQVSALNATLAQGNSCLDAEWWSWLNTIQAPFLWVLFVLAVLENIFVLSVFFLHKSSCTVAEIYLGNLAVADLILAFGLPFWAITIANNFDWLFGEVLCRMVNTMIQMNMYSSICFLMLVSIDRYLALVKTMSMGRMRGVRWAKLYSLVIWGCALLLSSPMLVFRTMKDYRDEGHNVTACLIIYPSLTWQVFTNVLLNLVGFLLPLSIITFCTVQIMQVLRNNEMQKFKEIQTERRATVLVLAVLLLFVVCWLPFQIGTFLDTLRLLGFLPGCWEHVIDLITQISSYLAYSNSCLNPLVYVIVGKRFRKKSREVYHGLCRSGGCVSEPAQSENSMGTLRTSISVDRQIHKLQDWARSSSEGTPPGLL
Kind of test: bradykinin antagonist action on the isolated arteria pulmonalis of the guinea pig (decrease of bradykinin-induced contraction). The procedure: For testing the peptides according to the invention on the isolated arteria pulmonalis, guinea pigs (Dunkin Hartley) having a weight of 400-450 g are sacrificed by a blow to the back of the neck.
The thorax is opened and the arteria pulmonalis is carefully dissected out. The surrounding tissue is carefully removed and the arteria pulmonalis is cut spirally at an angle of 45°.
The vessel strip of 2.5 cm length and 3-4 mm width is fixed in a 10 ml capacity organ bath which is filled with Ringer solution.
95% O2 and 5% CO2 is bubbled through the solution, which is warmed to 37° C. The pH is 7.4 and the preload on the vessel strip is 1.0 g.
The isotonic contraction changes are detected using a lever arrangement and an HF modem (position sensor) from Hugo Sachs and recorded on a compensating recorder (BEC, Goerz Metrawatt SE 460).
After equilibration for 1 hour, the experiment is begun.
For the detection of a partial agonistic effect, the peptides are used in the doses 1×10^-5 -1×10^-3 mol/l.

Where [1] appears, read: Table 1, vessel strip contracted with 2×10^-7 mol/l of bradykinin, peptides act 10 minutes, calculated from dose-effect curves.

Usually IC50 stands for the concentration that gives 50% inhibition. Where the note is “table by Example No., test not named there, values coincide with Table 1”, `N=C(N)NCCC[C@@H](N)C(=O)N[C@@H](CCCNC(=N)N)C(=O)N1CCC[C@H]1C(=O)N1C[C@H](O)C[C@H]1C(=O)NCC(=O)N[C@@H](Cc1cccs1)C(=O)N[C@@H](CO)C(=O)N1Cc2ccccc2C[C@@H]1C(=O)N1[C@H](C(=O)N[C@@H](CCCNC(=N)N)C(=O)O)C[C@@H]2CCCC[C@@H]21` [Example 59, H-(D)-Arg-Arg-Pro-Hyp-Gly-Thia-Ser-(D)-Tic-Oic-Arg-OH] showed an IC50 of 5.4 nM.
For `CC(C)C[C@H](NC(=O)CNC(=O)[C@@H]1C[C@@H](O)CN1C(=O)[C@@H]1CCCN1C(=O)[C@H](CCCNC(=N)N)NC(=O)[C@H](N)CCCNC(=N)N)C(=O)N[C@@H](CO)C(=O)N1Cc2ccccc2C[C@@H]1C(=O)N1[C@H](C(=O)N[C@@H](CCCNC(=N)N)C(=O)O)C[C@@H]2CCCC[C@@H]21` [Example 199, H-(D)-Arg-Arg-Pro-Hyp-Gly-Leu-Ser-(D)-Tic-Oic-Arg-OH] (H-[dR]RP[Hyp]GLS[dTic][Oic]R-OH), under setting [1], the 50% inhibitory concentration (IC50) was 5.9 nM.
In the case of `N=C(N)NCCC[C@@H](N)C(=O)N[C@@H](CCCNC(=N)N)C(=O)N1CCC[C@H]1C(=O)N1C[C@H](O)C[C@H]1C(=O)NCC(=O)N[C@@H](CC1CCCCC1)C(=O)N[C@@H](CO)C(=O)N1Cc2ccccc2C[C@@H]1C(=O)N1[C@H](C(=O)N[C@@H](CCCNC(=N)N)C(=O)O)C[C@@H]2CCCC[C@@H]21` [Example 200, H-(D)-Arg-Arg-Pro-Hyp-Gly-Cha-Ser-(D)-Tic-Oic-Arg-OH], the IC50 under setting [1] was 37 nM.
The same measure, in the same setting: for `CC(C)(C)[C@H](NC(=O)CNC(=O)[C@@H]1C[C@@H](O)CN1C(=O)[C@@H]1CCCN1C(=O)[C@H](CCCNC(=N)N)NC(=O)[C@H](N)CCCNC(=N)N)C(=O)N[C@@H](CO)C(=O)N1Cc2ccccc2C[C@@H]1C(=O)N1[C@H](C(=O)N[C@@H](CCCNC(=N)N)C(=O)O)C[C@@H]2CCCC[C@@H]21` [Example 201, H-(D)-Arg-Arg-Pro-Hyp-Gly-Tbg-Ser-(D)-Tic-Oic-Arg-OH] the value was 6000 nM.
